Among the test systems are A549 NSCLC; NCI/ADR-RES ovarian; SNB-19 CNS; SF-295 CNS; SN12C renal; DU-145 prostate; UO-31 renal; HT29 colon; OVCAR-3 ovarian; RPMI-8226 leukemia; CCRF-CEM leukemia; MDA-N; HL-60(TB) leukemia; MOLT-4 leukemia; NCI-H460 lung; BT-549 breast; SNB-75 CNS; HOP-62 NSCLC; HOP-92 NSCLC; SR leukemia.
Common to all, as to assay: growth of human tumour cells (NCI), 48 h

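Test compounds were applied to cells in 96-well plates for 48 hours at 5 doses. TGI: total growth inhibition.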

Turning to `Cc1cc2c(cc1Cl)SC(NNC(=O)c1ccco1)=NS2(=O)=O`, the TGI in the assay on A549 NSCLC, in the assay with NCI/ADR-RES ovarian, with SNB-19 CNS, with SF-295 CNS, with SN12C renal and in the assay on DU-145 prostate was over 10 µM throughout. The TGI in the assay with UO-31 renal, in the assay on HT29 colon, in the assay with OVCAR-3 ovarian, in the assay with RPMI-8226 leukemia, with CCRF-CEM leukemia and with MDA-N was over 10 µM each time. The TGI in the assay on HL-60(TB) leukemia, with MOLT-4 leukemia, in the assay with NCI-H460 lung, with BT-549 breast, with SNB-75 CNS and in the assay on HOP-62 NSCLC was over 10 µM each time.
As to `COC(=O)[C@H](Cc1ccccc1)NP(=O)(OCCC#N)OCC1OC(n2cc(C)c(=O)[nH]c2=O)CC1N=[N+]=[N-]` (stereo partly specified), the TGI in the assay with HOP-92 NSCLC, with A549 NSCLC, with NCI/ADR-RES ovarian, with SNB-19 CNS, in the assay on SF-295 CNS and in the assay on SN12C renal was over 100 µM throughout. Also, the TGI with DU-145 prostate, with UO-31 renal, in the assay on HT29 colon, in the assay on RPMI-8226 leukemia, in the assay with CCRF-CEM leukemia and in the assay on MDA-N was over 100 µM in each case. The TGI with HL-60(TB) leukemia, with MOLT-4 leukemia, in the assay on NCI-H460 lung, in the assay with BT-549 breast, with SNB-75 CNS and with HOP-62 NSCLC was over 100 µM each time.
For the molecule `OC1c2ccccc2CC12Cc1ccccc1C2` (stereo unspecified), the TGI in the assay on HOP-92 NSCLC, in the assay with A549 NSCLC, with NCI/ADR-RES ovarian, in the assay with SNB-19 CNS, in the assay on SF-295 CNS and in the assay on SN12C renal was over 100 µM each time. In addition, the TGI with DU-145 prostate, with SR leukemia, with UO-31 renal, with HT29 colon, with OVCAR-3 ovarian and in the assay on RPMI-8226 leukemia was over 100 µM each time. For the same molecule, the TGI with CCRF-CEM leukemia, in the assay on MDA-N, in the assay on HL-60(TB) leukemia, with MOLT-4 leukemia, in the assay with NCI-H460 lung and with SNB-75 CNS was over 100 µM each time. The TGI in the assay with HOP-62 NSCLC was over 100 µM.
For `CCOC(=O)c1cc(=O)c2ccnc3c2n1CCS3`, the TGI in the assay with HOP-92 NSCLC, with A549 NSCLC, with NCI/ADR-RES ovarian, in the assay on SNB-19 CNS, with SF-295 CNS and in the assay with SN12C renal was over 100 µM in each case. The TGI in the assay on DU-145 prostate, in the assay on UO-31 renal, in the assay with HT29 colon, in the assay on OVCAR-3 ovarian, in the assay with CCRF-CEM leukemia and in the assay on MDA-N was over 100 µM in each case. Further, the TGI with HL-60(TB) leukemia, with MOLT-4 leukemia, in the assay with NCI-H460 lung, with BT-549 breast, in the assay with SNB-75 CNS and in the assay on HOP-62 NSCLC was over 100 µM throughout.
`O=C(O)c1n[nH][nH]c1=S`: the TGI in the assay on HOP-92 NSCLC, with A549 NSCLC, in the assay with NCI/ADR-RES ovarian, in the assay with SNB-19 CNS, in the assay with SF-295 CNS and with SN12C renal was over 100 µM in each case. The TGI in the assay with DU-145 prostate, in the assay with SR leukemia, in the assay with UO-31 renal, with HT29 colon, in the assay on OVCAR-3 ovarian and in the assay on RPMI-8226 leukemia was over 100 µM throughout. Moreover, the TGI in the assay on CCRF-CEM leukemia, with MDA-N, with HL-60(TB) leukemia, in the assay with MOLT-4 leukemia, in the assay on NCI-H460 lung and in the assay with SNB-75 CNS was over 100 µM in each case. This molecule had a TGI in the assay on HOP-62 NSCLC of over 100 µM.
As to `N#C[C@@H](c1nc2ccccc2s1)c1ncccc1[N+](=O)[O-]`, the TGI in the assay with HOP-92 NSCLC was 6.85 µM; with A549 NSCLC, 18.1 µM; in the assay with NCI/ADR-RES ovarian it was 19.4 µM; with SNB-19 CNS, 17.4 µM; in the assay with SF-295 CNS it was 40.7 µM; in the assay on SN12C renal it was over 31.6 µM. The TGI with DU-145 prostate was over 31.6 µM; with UO-31 renal it was 25.6 µM; in the assay with OVCAR-3 ovarian it was 10.6 µM; in the assay with MDA-N it was over 31.6 µM; in the assay on MOLT-4 leukemia, over 31.6 µM; in the assay on NCI-H460 lung it was 14.2 µM. Moreover, the TGI in the assay with BT-549 breast was 26.9 µM; in the assay with SNB-75 CNS it was over 31.6 µM; in the assay with HOP-62 NSCLC it was over 57.6 µM.
With `C=C[C@@]1(C)CC[C@@H]2[C@@]3(C1)O[C@H]3CC1[C@](C)(C(=O)OC)CCC[C@@]12C` (stereo partly specified), the TGI in the assay on HOP-92 NSCLC was 33.8 µM; in the assay on A549 NSCLC, 54.7 µM; with NCI/ADR-RES ovarian, 42.1 µM; in the assay on SNB-19 CNS, 30.3 µM; in the assay on SF-295 CNS it was 29.3 µM; in the assay with DU-145 prostate it was over 100 µM. For the same molecule, the TGI in the assay on UO-31 renal was determined as 31.8 µM; in the assay on HT29 colon, 27.1 µM; with OVCAR-3 ovarian, 31.9 µM; with RPMI-8226 leukemia, 65.6 µM; in the assay on MDA-N it was 56.8 µM; with MOLT-4 leukemia, 42.2 µM. For the same molecule, the TGI in the assay on NCI-H460 lung is 31.3 µM; in the assay with BT-549 breast, 67.2 µM; with SNB-75 CNS, over 100 µM; with HOP-62 NSCLC, 40.6 µM.
With `CCCc1cc(=O)oc2c3c(c4c(c12)OC(C)(C)CC4)O[C@@H](C)[C@H](C)[C@H]3O`, the TGI in the assay on HOP-92 NSCLC worked out at 26.5 µM; in the assay on A549 NSCLC, 25.7 µM; in the assay on NCI/ADR-RES ovarian, 29.1 µM; in the assay on SNB-19 CNS it was 30.9 µM; in the assay with SF-295 CNS, 28.5 µM; with SN12C renal, 18.9 µM. Besides, the TGI in the assay on DU-145 prostate is 31.8 µM; with UO-31 renal it was 19 µM; in the assay with HT29 colon, 20.7 µM; with OVCAR-3 ovarian it was 32.7 µM; with RPMI-8226 leukemia, 8.74 µM; in the assay with CCRF-CEM leukemia it was 17.8 µM. Besides, the TGI amounted to 16.4 µM in the assay on MDA-N; 13.7 µM in the assay on MOLT-4 leukemia; 24.2 µM in the assay with NCI-H460 lung; 17.9 µM in the assay on BT-549 breast; 22.5 µM in the assay on SNB-75 CNS; 33.4 µM with HOP-62 NSCLC.

Values taken from PubChem BioAssay (NCI).
